pIC50: −log10 of the molar value.
These compounds were tested against human Nav1.7 (Homo sapiens (Human), UniProt Q15858) (assay: Human Nav1.7 inhibitory activity evaluation (automated patch clamp QPatch16X, HEK293A cells stably expressing human Nav1.7 and human Navβ1)). Conditions: human Nav1.7, automated patch clamp.
Format: cell-based
Description: Test Example 1: Human Nav1.7 Inhibitory Activity Evaluation
A cell line in which human Nav1.7 and human Navβ1 subunits were stably expressed in HEK293A cells was used. Dulbecco's Modified Eagle Medium (DMEM) supplemeted with 10% fetal bovine serum, 600 μg/ml geneticin, and 2 μg/ml blasticidin S were used as culture medium under the conditions of 37° C. and 5% CO2 in T175 flasks to carry out culturing. When 60-80% confluence was reached, the cells were detached and a cell suspension of about 0.5-5.0×10^6 cells/mL was prepared. The amount of current through human Nav1.7 was recorded using a fully automatic patch clamp device QPatch16X (Sophion Biosciences) at room temperature. As the extracellular solution, the solution of 145 mM NaCl, 4 mM KCl, 1 mM MgCl2, 2 mM CaCl2, 10 mM Glucose, 10 mM 4-(2-hydroxyethyl)-1-piperazine ethanesulfonic acid (HEPES) at pH 7.4 was used. As the intracellular solution, the solution of 135 mM CsF, ⅕ mM glycol ether diaminetetraacetic acid (EGTA)/CsOH, 10 mM HEPES, 10 mM NaCl at pH 7.3 was used. The test compounds were dissolved in dimethyl sulfoxide (DMSO) and diluted with the extracellular solution to attain the DMSO concentration of 0.1% at the time of assay.
The current response was obtained at a sampling frequency of 25 kHz, and noise was removed with a 3 kHz low-pass filter. The holding potential was −100 mV. Correction of the leakage current was carried out by applying a step pulse of −120 mV before the test pulse. In order to investigate inhibitory action of the test compound, the following test pulse was given: Namely, after depolarizing pulse of −10 mV was applied for 50 milliseconds, it was fixed at −120 mV for 500 milliseconds; a potential at which about 30-40% of the channel was inactivated was maintained for 15 seconds, then fixed again at −120 mV for 100 milliseconds, and finally a −10 mV depolarization pulse was given for 50 milliseconds. Test pulses were given before and after the test compound addition.
The inhibitory activity of the test compound was determined based on the amount of inward current generated by the second depolarization pulse, and the 50% inhibitory concentration (IC50) was calculated from the concentration-response curve.

human Nav1.7, sequence (Q15858 whole entry): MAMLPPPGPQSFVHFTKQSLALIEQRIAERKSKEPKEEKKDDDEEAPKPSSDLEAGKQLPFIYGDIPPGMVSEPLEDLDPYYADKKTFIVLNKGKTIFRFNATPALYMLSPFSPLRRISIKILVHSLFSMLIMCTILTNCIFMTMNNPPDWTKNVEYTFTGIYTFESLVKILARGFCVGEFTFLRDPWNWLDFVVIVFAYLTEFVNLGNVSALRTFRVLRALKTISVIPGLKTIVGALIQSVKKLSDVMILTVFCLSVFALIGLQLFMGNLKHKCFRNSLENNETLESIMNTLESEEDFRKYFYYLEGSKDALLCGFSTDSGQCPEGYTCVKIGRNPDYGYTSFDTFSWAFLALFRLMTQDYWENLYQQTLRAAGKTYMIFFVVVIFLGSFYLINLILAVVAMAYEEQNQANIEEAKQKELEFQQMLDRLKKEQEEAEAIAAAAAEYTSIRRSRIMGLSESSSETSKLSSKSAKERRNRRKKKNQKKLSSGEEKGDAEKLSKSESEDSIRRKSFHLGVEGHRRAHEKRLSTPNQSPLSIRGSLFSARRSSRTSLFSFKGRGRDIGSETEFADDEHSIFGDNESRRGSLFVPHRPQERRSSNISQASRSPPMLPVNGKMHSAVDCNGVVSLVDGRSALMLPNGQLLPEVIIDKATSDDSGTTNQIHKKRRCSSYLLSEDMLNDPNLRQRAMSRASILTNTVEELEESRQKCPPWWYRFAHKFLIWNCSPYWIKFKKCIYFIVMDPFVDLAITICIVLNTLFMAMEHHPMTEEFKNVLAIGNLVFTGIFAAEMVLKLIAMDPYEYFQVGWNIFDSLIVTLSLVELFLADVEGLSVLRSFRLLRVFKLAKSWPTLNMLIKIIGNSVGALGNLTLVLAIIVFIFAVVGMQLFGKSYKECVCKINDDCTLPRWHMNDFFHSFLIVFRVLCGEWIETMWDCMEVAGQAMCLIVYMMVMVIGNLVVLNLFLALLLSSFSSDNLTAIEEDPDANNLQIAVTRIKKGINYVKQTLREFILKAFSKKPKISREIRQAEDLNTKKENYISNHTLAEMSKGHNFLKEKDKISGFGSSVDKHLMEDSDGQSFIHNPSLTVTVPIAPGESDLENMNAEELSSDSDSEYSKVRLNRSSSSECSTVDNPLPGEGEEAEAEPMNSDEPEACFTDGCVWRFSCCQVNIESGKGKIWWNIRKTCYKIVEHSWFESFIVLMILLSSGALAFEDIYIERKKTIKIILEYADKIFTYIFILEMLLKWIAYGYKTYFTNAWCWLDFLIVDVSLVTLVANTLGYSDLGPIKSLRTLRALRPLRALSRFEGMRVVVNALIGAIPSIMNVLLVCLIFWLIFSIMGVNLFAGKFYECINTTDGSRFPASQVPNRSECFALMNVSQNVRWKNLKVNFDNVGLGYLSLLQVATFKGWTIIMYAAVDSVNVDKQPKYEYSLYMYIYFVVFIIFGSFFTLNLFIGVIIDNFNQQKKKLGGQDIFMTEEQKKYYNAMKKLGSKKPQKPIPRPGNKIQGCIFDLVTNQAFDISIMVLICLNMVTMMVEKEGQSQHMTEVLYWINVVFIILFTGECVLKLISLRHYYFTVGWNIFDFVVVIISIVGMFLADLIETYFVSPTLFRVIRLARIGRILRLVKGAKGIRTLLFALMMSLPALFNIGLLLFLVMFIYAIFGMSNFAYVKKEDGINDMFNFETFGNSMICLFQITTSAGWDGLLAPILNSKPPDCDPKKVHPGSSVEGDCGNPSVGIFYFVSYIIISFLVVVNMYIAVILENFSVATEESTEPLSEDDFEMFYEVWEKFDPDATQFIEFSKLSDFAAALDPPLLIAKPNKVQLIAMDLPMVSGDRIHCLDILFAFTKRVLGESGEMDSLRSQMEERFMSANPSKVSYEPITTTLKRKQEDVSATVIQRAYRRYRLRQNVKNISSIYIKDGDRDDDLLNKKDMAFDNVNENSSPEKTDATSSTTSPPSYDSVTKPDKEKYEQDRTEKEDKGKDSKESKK
human Nav1.7, sequence (Q07699 19-218 partner): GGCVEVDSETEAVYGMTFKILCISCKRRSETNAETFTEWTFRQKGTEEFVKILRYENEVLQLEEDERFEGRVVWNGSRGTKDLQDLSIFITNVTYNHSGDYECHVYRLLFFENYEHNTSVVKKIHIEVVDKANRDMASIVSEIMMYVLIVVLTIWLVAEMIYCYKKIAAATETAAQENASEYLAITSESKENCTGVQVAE

Row | Compound | pIC50
1 | O=C(N[C@H]1COc2ccc(Cl)cc2C1)c1cc2n(n1)CCN(CCOc1ccccn1)C2 [Example 274] | > 5.00
2 | COc1cc(C2(N3CCn4nc(C(=O)N[C@H]5COc6ccc(C#N)cc6C5)cc4C3)CC2)ccn1 [Example 286] | > 5.00
3 | CCOCc1cccc2c1CC(NC(=O)c1cn3c(n1)CCC(C(F)(F)F)C3)CO2 (stereo not shown) [Example 296] | > 5.00
4 | O=C(N[C@H]1COc2ccccc2C1)c1nc2n(c1-c1ccccc1)CC(C(F)(F)F)CC2 (stereo partly shown) [Example 299] | > 6.00
5 | N#Cc1c(C(=O)N[C@H]2COc3ccccc3C2)nc2n1CC(C(F)(F)F)CC2 (stereo partly shown) [Example 300] | > 5.00
6 | O=C(N[C@H]1COc2ccccc2C1)c1nc2n(c1CCCO)CC(C(F)(F)F)CC2 (stereo partly shown) [Example 301] | > 5.00
7 | C=Cc1c(C(=O)N[C@H]2COc3ccccc3C2)nc2n1CC(C(F)(F)F)CC2 (stereo partly shown) [Example 302] | > 5.00
8 | O=C(N[C@H]1COc2ccc(CCOC(F)(F)F)cc2C1)c1nc2n(c1-c1ccccn1)CCCC2 [Example 306] | > 6.00
9 | O=C(N[C@H]1COc2ccccc2C1)c1cn2c(n1)CCC(c1cccc(C(F)(F)F)n1)C2 (stereo partly shown) [Example 314] | > 6.00
10 | CN(C1CCc2nc(C(=O)N[C@H]3COc4ccccc4C3)cn2C1)S(=O)(=O)c1ccccc1 (stereo partly shown) [Example 322] | > 5.00
11 | CN1Cc2nc(C(=O)NCCc3c[nH]c4ccccc34)cn2CC1c1ccccc1 (stereo not shown) [Example 323] | > 5.00
12 | CN1Cc2nc(C(=O)N3CC(Oc4cccc(C(F)(F)F)n4)C3)cn2CC1c1ccccc1 (stereo not shown) [Example 330] | > 5.00
13 | CN1Cc2nc(C(=O)N3CCC(Oc4cccc(C(F)(F)F)n4)C3)cn2CC1c1cccc(OC(F)(F)F)c1 (stereo not shown) [Example 335] | > 5.00
14 | O=C(N[C@H]1COc2ccccc2C1)c1nc2n(c1-c1ccccc1)CCN(C(=O)C(F)(F)F)C2 [Example 339] | > 5.00
15 | O=C(N[C@H]1COc2ccc(C(F)(F)F)cc2C1)c1nc2n(c1-c1cccnc1OCC(F)(F)F)CCOC2 [Example 346] | > 5.00
16 | O=C(NC1COc2ccccc2C1)c1nn2c(c1-c1ccccc1)CCCC2 (stereo not shown) [Example 347] | > 5.00
17 | COc1cccc(-c2c(C(=O)N[C@H]3COc4ccc(Cl)cc4C3)nn3c2CCCC3)n1 [Example 348] | > 6.00
18 | CCOC(C)c1ccc2c(c1)C[C@@H](NC(=O)c1cc3n(n1)CCC(c1ccccc1F)O3)CO2 (stereo partly shown) [Example 365] | > 5.00

Row | Compound | pIC50
19 | O=C(N[C@H]1COc2ccc(CN3CCOCC3)cc2C1)c1cc2n(n1)CCC(c1ccccc1F)O2 (stereo partly shown) [Example 368] | > 5.00
20 | COc1ccc(C2CCn3nc(C(=O)N[C@H]4COc5ccc(Cl)cc5C4)cc3O2)cn1 (stereo partly shown) [Example 371] | > 6.00
21 | CCOc1ncccc1C1CCn2nc(C(=O)N[C@H]3COc4ccc(C#N)cc4C3)cc2O1 (stereo partly shown) [Example 372] | > 6.00
22 | O=C(N[C@H]1COc2ccc(-c3ccncc3)cc2C1)c1cc2n(n1)CCC(C(F)(F)F)O2 (stereo partly shown) [Example 376] | > 5.00
23 | COc1ncccc1-c1ccc2c(c1)C[C@@H](NC(=O)c1cc3n(n1)CCC(C(F)(F)F)O3)CO2 (stereo partly shown) [Example 377] | > 5.00
24 | C=C1CCn2nc(C(=O)N[C@H]3COc4ccc(Cl)cc4C3)cc2O1 [Example 379] | > 6.00
25 | O=C(N[C@H]1COc2ccc(-c3cnc(N4CCC4)nc3)cc2C1)c1cc2n(n1)CCC(C(F)(F)F)O2 (stereo partly shown) [Example 380] | > 5.00
26 | O=C(N[C@H]1COc2ccc(Cl)cc2C1)c1cc2n(n1)CCC(CF)O2 (stereo partly shown) [Example 381] | > 5.00
27 | N#Cc1ccc2c(c1)C[C@@H](NC(=O)c1cc3n(n1)CCC(Cc1ccc(F)cc1)O3)CO2 (stereo partly shown) [Example 384] | > 6.00
28 | CC1Oc2cc(C(=O)N[C@H]3COc4ccc(Cl)cc4C3)nn2CC1(F)F (stereo partly shown) [Example 385] | > 5.00
29 | O=C(N[C@H]1COc2ccc(Cl)cc2C1)c1cc2n(n1)CCC(C1CC1)O2 (stereo partly shown) [Example 387] | > 6.00
30 | CC(C)C1CCn2nc(C(=O)N[C@H]3COc4ccc(C#N)cc4C3)cc2O1 (stereo partly shown) [Example 393] | > 5.00
31 | C=Cc1ccc2c(c1)C[C@@H](NC(=O)c1cc3n(n1)CCC(C(F)(F)F)O3)CO2 (stereo partly shown) [Example 396] | > 6.00
32 | CC1(C)CCn2nc(C(=O)N[C@H]3COc4ccc(CCOC(F)(F)F)cc4C3)cc2O1 [Example 403] | > 6.00
33 | O=C(N[C@H]1COc2ccc(Cl)cc2C1)c1cc2n(n1)CCC(CC(F)F)O2 (stereo partly shown) [Example 404] | > 6.00
34 | O=C(N[C@H]1COc2ccc(C3CC3)cc2C1)c1cc2n(n1)CCC(C(F)F)O2 (stereo partly shown) [Example 405] | > 6.00
35 | O=C(N[C@H]1COc2ccc(Cl)cc2C1)c1cc2n(n1)CCC(C#CC1CC1)O2 (stereo partly shown) [Example 406] | > 6.00
36 | N#Cc1ccc2c(c1)C[C@@H](NC(=O)c1cc3n(n1)CCC(C(O)C(F)(F)F)O3)CO2 (stereo partly shown) [Example 417] | > 5.00

Second part, the compound after the results:

Row | pIC50 | Compound
37 | > 5.00 | N#Cc1ccc2c(c1)C[C@@H](NC(=O)c1cc3n(n1)CCN(C1CCCC1)C3)CO2 [Example 271]
38 | > 5.00 | C=Cc1cccc2c1CC(NC(=O)c1cn3c(n1)CCC(C(F)(F)F)C3)CO2 (stereo not shown) [Example 293]
39 | > 5.00 | N#CCc1cccc2c1CC(NC(=O)c1cn3c(n1)CCC(C(F)(F)F)C3)CO2 (stereo not shown) [Example 297]
40 | > 5.00 | O=C(c1cn2c(n1)CCC(c1cccc(N3CC(O)C3)n1)C2)N1CCC(c2ccccc2)C1 (stereo not shown) [Example 309]
41 | > 5.00 | O=C(c1cn2c(n1)CCC(c1cccc(N3CCCC3)n1)C2)N1CCC(c2ccccc2)C1 (stereo not shown) [Example 310]
42 | > 5.00 | O=C(c1cn2c(n1)CCC(c1cccnc1C(F)(F)F)C2)N1CCCC1c1ccccc1 (stereo not shown) [Example 315]
43 | > 5.00 | CCC(F)(CC)C1CCc2nc(C(=O)N[C@H]3COc4ccccc4C3)cn2C1 (stereo partly shown) [Example 319]
44 | > 5.00 | CC(C)(F)CCC1CCc2nc(C(=O)N[C@H]3COc4ccccc4C3)cn2C1 (stereo partly shown) [Example 320]
45 | > 6.00 | CN1Cc2nc(C(=O)N3CCC(F)(c4ccccc4Cl)C3)cn2CC1c1ccccc1 (stereo not shown) [Example 329]
46 | > 6.00 | N#Cc1ccc2c(c1)C[C@@H](NC(=O)c1nc3n(c1-c1cccc(Cl)n1)CCOC3)CO2 [Example 341]
47 | > 6.00 | O=C(N[C@H]1COc2ccc(C3CC3)cc2C1)c1nc2n(c1-c1ccccn1)CCOC2 [Example 342]
48 | > 5.00 | O=C(NC1COc2c(F)cc(F)cc2C1)c1cc2n(n1)CCC(c1ccccc1)O2 (stereo not shown) [Example 354]
49 | > 6.00 | O=C(NC1COc2ccc(Cl)cc2C1)c1cc2n(n1)CCC(c1ccccc1)O2 (stereo not shown) [Example 355]
50 | > 5.00 | O=C(NC1COc2ccc3ncccc3c2C1)c1cc2n(n1)CCC(c1ccccc1F)O2 (stereo not shown) [Example 363]
51 | > 6.00 | COc1ncccc1C1CCn2nc(C(=O)N[C@H]3COc4ccc(Cl)cc4C3)cc2O1 (stereo partly shown) [Example 367]
52 | > 5.00 | CN(C)CCOCc1ccc2c(c1)C[C@@H](NC(=O)c1cc3n(n1)CCC(c1ccccc1F)O3)CO2 (stereo partly shown) [Example 369]

Row | pIC50 | Compound
53 | > 5.00 | CN(C)C(=O)COCc1ccc2c(c1)C[C@@H](NC(=O)c1cc3n(n1)CCC(c1ccccc1F)O3)CO2 (stereo partly shown) [Example 370]
54 | > 6.00 | N#Cc1ccc2c(c1)C[C@@H](NC(=O)c1cc3n(n1)CCC(C1CCC1)O3)CO2 (stereo partly shown) [Example 388]
55 | > 5.00 | N#Cc1ccc2c(c1)C[C@@H](NC(=O)c1cc3n(n1)CCC(C#Cc1ccccc1)O3)CO2 (stereo partly shown) [Example 390]
56 | > 5.00 | COC(C)(C)C#CC1CCn2nc(C(=O)N[C@H]3COc4ccc(C#N)cc4C3)cc2O1 (stereo partly shown) [Example 394]
57 | > 6.00 | O=C(N[C@H]1COc2ccc(Cl)cc2C1)c1cc2n(n1)CCC(CC1CCOCC1)O2 (stereo partly shown) [Example 395]
58 | > 6.00 | O=C(N[C@H]1COc2ccc(CCOCC(F)(F)F)cc2C1)c1cc2n(n1)CCC(C(F)(F)F)O2 (stereo partly shown) [Example 397]
59 | > 5.00 | COC(C)(C)C#Cc1ccc2c(c1)C[C@@H](NC(=O)c1cc3n(n1)CCC(C(F)(F)F)O3)CO2 (stereo partly shown) [Example 398]
60 | > 6.00 | O=C(N[C@H]1COc2ccc(COC3CCC3)cc2C1)c1cc2n(n1)CCC(C(F)(F)F)O2 (stereo partly shown) [Example 399]
61 | > 6.00 | CCOC(F)C1CCn2nc(C(=O)N[C@H]3COc4ccc(Cl)cc4C3)cc2O1 (stereo partly shown) [Example 409]
62 | > 6.00 | N#Cc1ccc2c(c1)C[C@@H](NC(=O)c1cc3n(n1)CCC(COCC1CCC1)O3)CO2 (stereo partly shown) [Example 410]
63 | > 6.00 | O=C(N[C@H]1COc2ccc(Cl)cc2C1)c1cc2n(n1)CCC(COCC1CCOCC1)O2 (stereo partly shown) [Example 413]
64 | > 5.00 | O=C(c1cc2n(n1)CCC(COCC1COC1)O2)N(CC1COC1)[C@H]1COc2ccc(-c3ccccn3)cc2C1 (stereo partly shown) [Example 414]
65 | > 5.00 | O=C(N[C@H]1COc2ccc(Cl)cc2C1)c1cc2n(n1)CCC1(CCOCC1)O2 [Example 416]
66 | > 5.00 | N#Cc1ccc2c(c1)C[C@@H](NC(=O)c1cc3n(n1)CCC(COCCC(F)(F)F)O3)CO2 (stereo partly shown) [Example 418]
67 | > 5.00 | CC1(COCC2CC2)CCn2nc(C(=O)N[C@H]3COc4ccc(C#N)cc4C3)cc2O1 (stereo partly shown) [Example 419]

From patent publication US12421225B2, “Heteroaromatic amide derivative and medicament containing the same” (KAKEN PHARMACEUTICAL CO., LTD., priority 2018, dated 2025)
